One may read the Ki as the equilibrium dissociation constant of an inhibitor or competing ligand from its target.

Test [1] addresses Adenosine receptor A2a (Rattus norvegicus, UniProt P30543).
Description: Displacement of [3H]MSX-2 from adenosine A2A receptor in rat brain striatal membrane after 30 mins by scintillation counting
In test [2] the target is T1, Adenosine receptor A1 (Rattus norvegicus, UniProt P25099).
T1 sequence (P25099 whole entry): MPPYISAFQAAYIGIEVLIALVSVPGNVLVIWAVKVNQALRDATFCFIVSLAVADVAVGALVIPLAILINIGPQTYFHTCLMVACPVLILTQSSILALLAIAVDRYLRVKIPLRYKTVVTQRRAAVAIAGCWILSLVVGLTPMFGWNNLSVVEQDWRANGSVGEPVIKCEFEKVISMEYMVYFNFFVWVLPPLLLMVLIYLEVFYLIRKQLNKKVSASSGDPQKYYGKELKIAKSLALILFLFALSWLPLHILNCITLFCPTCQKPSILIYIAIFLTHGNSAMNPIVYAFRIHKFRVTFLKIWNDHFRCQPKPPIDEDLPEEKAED
Description: Displacement of [3H]CCPA from adenosine A1 receptor in rat brain cortical membrane after 90 mins by scintillation counting

Chain of Adenosine receptor A2a (P30543 whole entry): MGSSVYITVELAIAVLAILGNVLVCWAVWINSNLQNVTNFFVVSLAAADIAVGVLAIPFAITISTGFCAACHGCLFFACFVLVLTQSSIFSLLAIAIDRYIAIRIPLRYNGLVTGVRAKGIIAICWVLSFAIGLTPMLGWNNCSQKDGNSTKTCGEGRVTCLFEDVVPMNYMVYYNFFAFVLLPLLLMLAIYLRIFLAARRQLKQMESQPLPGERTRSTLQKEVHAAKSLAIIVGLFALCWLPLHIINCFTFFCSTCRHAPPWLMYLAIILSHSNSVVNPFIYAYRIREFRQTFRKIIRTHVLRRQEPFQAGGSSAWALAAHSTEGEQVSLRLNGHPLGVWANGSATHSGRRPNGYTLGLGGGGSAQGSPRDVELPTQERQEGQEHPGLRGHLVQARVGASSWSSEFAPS

`C#CCn1c(-c2ccccc2)nc2sc(C)c(C)c2c1=O` registered an inhibition constant Ki in test [1] of 0.029 µM.
`C#CCn1c(C)nc2sc3c(c2c1=O)CCCC3` returned a Ki in test [1] of 0.007 µM.
As to `C#CCn1c(C)nc2sc(C)c(C)c2c1=O`, the figures for the Ki in test [2] and in test [1] were 0.006 µM and 3.79 µM, respectively.
Take `C#CCn1c(-c2ccccc2)nc2sc3c(c2c1=O)CCC3`: the figures for the Ki in test [2] and in test [1] were 0.005 µM and 9.7 µM, respectively.
For `C#CCn1c(Cc2ccc(F)cc2)nc2sc(C)c(C)c2c1=O`, in that order: 0.004 µM and 7.62 µM.
The matching figures for `C#CCn1c(C)nc2sc3c(c2c1=O)CCC3`: 0.006 µM and 0.018 µM.
For `C#CCn1c(Cc2ccc(F)cc2)nc2sc3c(c2c1=O)CCCC3`, the inhibition constant (Ki) worked out at 0.021 µM in test [2] and 0.014 µM in test [1].
`C#CCOc1nc(-c2ccccc2)nc2sc3c(c12)CCCC3` registered a Ki in test [1] of 0.003 µM.

(Values after ChEMBL document CHEMBL1157846, “Synthesis and theoretical studies on energetics of novel N- and O- perfluoroalkyl triazole tagged thienopyrimidines--their potential as adenosine receptor ligands” (Eur J Med Chem, 2010).)
